Source: patent US20200003760A1, “IN-VITRO METHODS FOR CLASSIFYING DRUGS ACCORDING TO THEIR POTENTIAL TO CAUSE LIVER CELL INJURY” (Board of Trustees of Michigan State University, priority 2018, published 2020)
Read-outs that look alike come from different tables or passages of the source.

How the values were obtained:
HepG2 cells = experiment: Drug/cytokine-induced cytotoxicity (% LDH release) concentration-response in HepG2 cells; assay type: cell-based, human; design: key to Deltadiff: LDH release percentage points (drug/TNF Delta minus drug/VEH Delta); details: for R10 / R10 IFN / R10 TNF / R10 TNF/IFN: 10 percent increase in LDH response above min, 0 when D10 = 0; for R10 IFN: with IFN; for R10 TNF: with TNF; for Deltadiff: Delta of drug/TNF curve minus Delta of drug/VEH curve (LDH percentage); for TNF change: D10TNF − D10VEH
Method: Cells were passed or used for experiments when they reached approximately 80% confluence. Cells were used at passage 6-16.
HepG2 cells were plated at a density of 4×10^4 cells per well in black-walled, 96-well, tissue culture plates and were allowed to attach overnight before being treated with compounds. Drugs were reconstituted in vehicles consisting of sterile water or DMSO (concentration less than 0.5%). Cells were treated with various concentrations of the drug or its vehicle (control) alone or in combination with the cytokines TNF (10 ng/ml) and/or IFN (10 ng/ml) or their PBS vehicle (VEH). Cytotoxicity was evaluated as lactate dehydrogenase (LDH) activity released from the cells into culture medium using the Homogeneous Membrane Integrity Assay kit from Promega (Madison, Wis.).
Concentration-response curves were generated for 24 drugs, 14 of which are associated with human IDILI and 10 of which are not. […] This was necessary because four-parameter logistic modeling used in the statistical analysis requires well defined, sigmoidal concentration-response curves. Cells were exposed to drug/cytokine combinations for 24 hours. For analysis of drug concentration-response data, concentrations of each drug were expressed as a fraction of its Cmax.
Defining covariates: four-parameter logistic model. In the first phase, variables (potential covariates) for use in the classification analysis were defined from the analysis of drug concentration-response data. Initially, a one-way analysis of variance (ANOVA) was used as an omnibus test to determine if a particular treatment (e.g. drug alone or in combination with TNF and/or IFN) caused a significant change in LDH release relative to baseline (i.e., LDH release in the absence of drug, hereafter designated “min”). The criterion for significance for the ANOVA was set at α=0.01. A 1% level of significance was used to rule out more vigorously marginal relationships between concentration and response.
where LDH(x) is the percentage of LDH released at a given concentration x; x=[drug]/Cmax; min=the % LDH release at 0 drug concentration (i.e., baseline); and max=the maximal LDH response (i.e., maximum % LDH release).
where D10 is a categorical variable related to reaching a threshold LDH response above which a drug is classified as positively associated with IDILI. D10 is defined as 0 if Delta<10% LDH release and as 1 if Delta≥10% LDH release.
The base covariate R10 represents the [drug]/Cmax value associated with an increase in 10 LDH percentage points above min for a particular treatment condition and was determined by the equation:
R10 was considered to be 0 when the Delta<10% LDH (i.e. when D10=0).
EC50 quotient, EC10 quotient and R10 quotient represent the ratio between the EC50, EC10 or R10 of the drug/cytokine concentration-response curve and the respective value for the drug/VEH concentration-response curve. In some instances, the value derived from this calculation is indeterminate (i.e. when the denominator=0). In order to incorporate the quotient values into the classification models described below, the categorical variable “Q” was used to eliminate the possibility of the quotient being indeterminate. Q is defined as 0 if Delta VEH and/or Delta cytokine is <10% LDH and 1 if both Delta VEH and Delta cytokine are ≥10% LDH. […] The same condition was applied for calculation of EC10 quotient and R10 quotient.
Deltadiff represents the difference between the Delta of the drug/cytokine concentration-response curve and the Delta of the drug/VEH curve. In other words, Deltadiff=(Delta cytokine)−(Delta VEH). FIG. 1 graphically illustrates several of the covariates defined above. […] In addition to the covariates derived from the concentration-response curves, the maximal therapeutic plasma drug concentration (Cmax) in human patients was used in some models (Table 1).

[1] = Logistic regression classification model: probability that a drug is associated with IDILI; design: species or system human; details: probability that drug is associated with IDILI; covariates Deltadiff, EC50 VEH, EC50 TNF, Delta VEH, Cmax; optimal cutoff 0.46
From the text: Classification modeling using defined covariates. In the second phase of analysis, classification models were developed using logistic regression with covariates as independent variables in the analysis and known IDILI classification as the dependent variable. A model selection process was used to determine if a covariate or set of covariates is associated with IDILI liability. Covariates were first evaluated individually to determine how well a particular covariate classified drugs according to IDILI liability, and then covariates were evaluated in combination. Combinations of covariates were selected to maximize the ability of the model to distinguish between drugs associated or not with IDILI. Specifically, covariates that describe changes in efficacy (Delta, Deltadiff, etc.) were paired with covariates that describe changes in potency (EC50, EC10, R10, etc.) to find covariate combinations that led to models that most accurately discriminated between drugs that are and are not associated with IDILI. […] The logistic regression models follow the equation: […]
where ŷi is the calculated (predicted) probability that drug i with a vector of covariates xi is associated with IDILI. The β coefficients (β0, the regression intercept; and βi, the regression slopes for model covariates, xi) were derived from the logistic regression models using 1) combinations of the covariates (xi) generated by concentration-response modeling for each of the 24 drugs evaluated in this study, and 2) the true IDILI classification for the dependent variable yi (i.e., 1 for IDILI+drugs and 0 for IDILI-drugs). […] This occurs when a covariate almost perfectly separates observations into the appropriate categories. […] When separation or quasi-complete separation occurs, use of the standard method (i.e., maximum likelihood estimation) provides biased, unreliable estimates of βi.
Receiver operating characteristic (ROC) analysis. In the third phase of the statistical approach, the classification models, generated as logistic regression models using single covariates or combinations of covariates, were evaluated by ROC analysis to determine which model and corresponding sets of covariates led to the most accurate classification of drugs according to their potential to cause IDILI. An ROC curve was created for each model by graphing the true positive rate (sensitivity; i.e., proportion of drugs correctly classified as associated with IDILI) against the false positive rate (1-specificity; i.e., proportion of drugs incorrectly classified as associated with IDILI) at various probability cutoff thresholds (k). […] An area under the curve (AUC) and confidence interval was computed for each ROC curve (where each logistic regression model has one ROC curve). […] Corresponding to each ROC curve is an optimal threshold value (k*), the threshold yielding the highest point of accuracy on the curve (i.e., the point nearest the point […] on the curve). Thus, each ROC curve has a corresponding AUC and an optimal cutoff (k*) that corresponds to the highest point of accuracy on that ROC curve.

[2] = maximal plasma concentration after pharmacologic dosing in human patients; cited from earlier work
[3] = cited from earlier work; for True classification: IDILI in human patients; for IDILI liability: criteria of Xu et al. (2008)
[4] = Homo sapiens, HepG2, categorical, Delta threshold 10 LDH percentage points, drug alone (VEH), read-out: D10
[5] = Homo sapiens, HepG2, maximal LDH response, drug alone (VEH), 24 h, read-out: max

SMILES	R10 (HepG2 cells; drug alone (VEH))	R10 IFN (HepG2 cells)	R10 TNF (HepG2 cells)	R10 TNF/IFN (HepG2 cells; with TNF and IFN)	Deltadiff (HepG2 cells)	Emax (HepG2 cells; [4])	Emax (HepG2 cells; [5])	TNF change (HepG2 cells; categorical)	Estimated probability [1]	Cmax [2]	True classification [3]	IDILI liability [3]	cytotoxic interaction of drug with TNF (HepG2 cells; HepG2, 24 h, TNF 10 ng/ml)	effect of IFN coexposure on the drug/TNF cytotoxic interaction (HepG2 cells; HepG2, 24 h, TNF and IFN 10 ng/ml each)	cytotoxicity of drug on its own (LDH release) (HepG2 cells; HepG2, 24 h, absence of cytokines)	D10 (LDH rise of at least 10 points, yes/no) (HepG2 cells; Homo sapiens, HepG2, categorical, Delta threshold 10 LDH percentage points, drug alone (VEH))	EC10 (HepG2 cells; value corresponding to 10% of Delta (max-min), drug alone (VEH), NA = no significant increase)	EC10 IFN (HepG2 cells; value corresponding to 10% of Delta, with IFN 10 ng/ml, NA = no significant increase)	EC10 TNF (HepG2 cells; value corresponding to 10% of Delta, with TNF 10 ng/ml, NA = no significant increase)	EC10 TNF/IFN (HepG2 cells; value corresponding to 10% of Delta, with TNF and IFN, NA = no significant increase)
CC(=O)[C@]1(O)Cc2c(O)c3c(c(O)c2[C@@H](O[C@H]2C[C@H](N)[C@H](O)[C@H](C)O2)C1)C(=O)c1ccccc1C3=O [Idarubicin]	0 [drug]/Cmax	0 [drug]/Cmax	0 [drug]/Cmax	0 [drug]/Cmax	0	< 10%	13.9%	0	0.1275	20 nM	IDILI−	IDILI−	–	–	–	–	–	–	–	–
NNC(=O)c1ccncc1 [Isoniazid]	440.9 [drug]/Cmax	434.0 [drug]/Cmax	268.1 [drug]/Cmax	208.7 [drug]/Cmax	38.8	–	57.7%	0	0.7562	77000 nM	IDILI+	IDILI+	TNF significantly enhanced the cytotoxicity	coexposure to IFN enhanced the cytotoxic interaction	statistically significant increase in LDH release	> 10%	427.0 [drug]/Cmax	420.5 [drug]/Cmax	248.0 [drug]/Cmax	169.7 [drug]/Cmax
CC(CN1c2ccccc2Sc2ccccc21)N(C)C (stereo not shown) [Promethazine]	0 [drug]/Cmax	0 [drug]/Cmax	0 [drug]/Cmax	0 [drug]/Cmax	0	< 10%	17%	0	0.1275	60 nM	IDILI−	IDILI−	–	–	–	–	–	–	–	–
